Legend:
[1] = test system: Sclerotinia sclerotiorum; assay: Fungicidal efficacy by gassing, sclerotia; assay type: cell-based; set-up: Vitality score Nm (over 19 days): scale not given here; Reduction in viability RV / Reduction in vitality score RNm: unit not given here; conditions: for Reduction in viability RV / Reduction in vitality score RNm: compared with the control
Description: These four organisms are the following:
Sclerotinia sclerotiorum: polyphagous fungus which attacks mainly melon crops.
• Sclerotinia sclerotiorum: sclerotia • Sclerotium rolfsii: sclerotia • Rhizoctonia solani: colonized barley grains (mycelium and sclerotia) • Phytophthora cactorum: colonized millet grains (mycelium, sporangia and oospores) Preparation of the Fungi (24 h Before the Gassing Operation) 1. Preparation of the sclerotia of Sclerotinia sclerotiorum and of Sclerotium rolfsii: The fungi are cultured on malt agar medium until the sclerotia are obtained. The sclerotia are collected in a sterile manner and stored dry in empty Petri dishes until they are used. The sclerotia used for the trial are over 3 months old and are perfectly dormant. 2. Preparation of Phytophthora cactorum and of Rhizoctonia solani: The millet and barley used for the multiplication of the two fungi are moistened with ultrapure water by immersing for 24 hours. The grains are then slightly drained and then distributed into flasks and autoclaved (3 autoclavings at 110° C. for 20 minutes, 3 times at 24 hour intervals). Fragments of fungal culture are introduced into the flasks which are then incubated at 22° C.±2° C. (white light 18 h) until homogeneous colonization is obtained. The grains are then removed from the flasks in a sterile manner, dried in the sterile stream of a safety cabinet and then stored in the dry state until they are used. Conditions for Gassing and for Desorption
All the batches of fungi to be treated are placed for a few hours at the trial temperature (20° C.). Between 35 and 300 units of fungi or “propagules” (grains or sclerotia) are subjected to gassing during each trial.
Each fumigation chamber comprising to one or more species of fungi corresponds to a glass round-bottomed flask which is impervious to the gas and has a volume of 11 litres. Each round-bottomed flask is equipped with branch connections, one at the bottom for introducing the liquid DMDS, one at the top for collecting the air sample with a syringe.
Before introducing the gas, a partial vacuum (−500 mbar) is established in the round-bottomed flask with a vacuum pump. This makes it possible, on the one hand, to avoid the phenomenon of excess pressure due to the expansibility of DMDS in the round-bottomed flask and, on the other hand, to promote better homogeneity of the air-gas mixture in the first few seconds which follow injection. The DMDS (weighed accurately to the mg) is injected with a syringe, in liquid form, through the bottom branch connection, that is to say under the screen placed at half height of the round-bottomed flask and supporting the batches of fungi. After introducing the product, the internal pressure of the round-bottomed flask is re-established at atmospheric pressure. A magnetic stirrer operates during the entire duration of the treatment in order to properly homogenize the air-gas mixture.
At the end of the gassing, the cover for the round-bottomed flask is removed. One minute after this operation, the batches of fungi gassed are taken out and left in the open air for 15 minutes for desorption of the DMDS. They are then transferred into a Petri dish, the latter remaining open for 5 minutes to allow perfect desorption of the gas.
The mean concentration (C in g/m^3) of DMDS in the fumigation chamber after homogenization of the gas in the chamber air is measured by GC with an FID detector and, taking into account the duration of exposure (T in hours), the product CT (g·h/m^3) is calculated which, in the field of fumigation, is the key parameter to be considered, since the biological efficacy of a gas towards a given pathogenic agent is only effective if the latter was exposed to a certain mean concentration C for a certain duration of exposure T, that is to say to a certain value of the product CT, a value (or dose) which can be reached in different ways: low concentrations and long duration of exposure or conversely. […]

[2] = test system: eggs of nematodes (Meloidogyne arenaria); assay: Ovicidal activity on the eggs of nematodes (number of hatchings); assay type: in vivo
Description: The breeding of the nematodes was carried out on tomato plants. The tests were carried out with, aqueous solutions of DMDS at 0.0001%, 0.1%, 1% and 5% by mass, of DPDS at 1%, 5% and 10% by mass, and of allicin at 0.0003%, 0.0015% and 0.003% by mass, compared with a control consisting of pure water, and repeated five times. The ovicidal activity was also evaluated according to the same modalities, by counting the number of hatchings after 5 to 20 days following exposure to the products.

[3] = CT 1 050 g·h/m^3 (C 15.91 g/m^3, T 66 h)
[4] = CT 1 402 g·h/m^3 (C 21.24 g/m^3, T 66 h)
[5] = CT 1 450 g·h/m^3 (C 30.96 g/m^3, T 48 h)
[6] = CT 1 899 g·h/m^3 (C 28.77 g/m^3, T 66 h)
[7] = CT 1 981 g·h/m^3 (C 30.02 g/m^3, T 66 h)
[8] = CT 2 460 g·h/m^3 (C 51.25 g/m^3, T 48 h)
[9] = CT 2 471 g·h/m^3 (C 37.44 g/m^3, T 66 h)
[10] = CT 2 837 g·h/m^3 (C 42.98 g/m^3, T 66 h)
[11] = CT 2 974 g·h/m^3 (C 45.06 g/m^3, T 66 h)
[12] = CT 3 169 g·h/m^3 (C 48.02 g/m^3, T 66 h)
[13] = CT 3 467 g·h/m^3 (C 52.53 g/m^3, T 66 h), called an abnormal point
[14] = CT 419 g·h/m^3 (C 17.46 g/m^3, T 24 h)
[15] = CT 625 g·h/m^3 (C 26.04 g/m^3, T 24 h)
[16] = CT 703 g·h/m^3 (C 29.29 g/m^3, T 24 h)
[17] = CT 907 g·h/m^3 (C 37.79 g/m^3, T 24 h)

Structure (SMILES): CSSC [DMDS, dimethyl disulphide]
- Viability V [1, 3]: 41.8%
- Vitality score Nm (over 19 days) [1, 3]: 5.1
- Reduction in viability RV [1, 3]: 56.1
- Reduction in vitality score RNm [1, 3]: 63.6
- Viability V [1, 4]: 46.8%
- Vitality score Nm (over 19 days) [1, 4]: 1.3
- Reduction in viability RV [1, 4]: 50.9
- Reduction in vitality score RNm [1, 4]: 90.6
- Viability V [1, 5]: 29.8%
- Vitality score Nm (over 19 days) [1, 5]: 1.0
- Reduction in viability RV [1, 5]: 65.8
- Reduction in vitality score RNm [1, 5]: 92.1
- Viability V [1, 6]: 29.6%
- Vitality score Nm (over 19 days) [1, 6]: 3.6
- Reduction in viability RV [1, 6]: 68.9
- Reduction in vitality score RNm [1, 6]: 74.8
- Viability V [1, 7]: 20.3%
- Vitality score Nm (over 19 days) [1, 7]: 2.7
- Reduction in viability RV [1, 7]: 78.7
- Reduction in vitality score RNm [1, 7]: 81.2
- Viability V [1, 8]: 14.6%
- Vitality score Nm (over 19 days) [1, 8]: 0.7
- Reduction in viability RV [1, 8]: 83.2
- Reduction in vitality score RNm [1, 8]: 94.9
- Viability V [1, 9]: 32.9%
- Vitality score Nm (over 19 days) [1, 9]: 4.6
- Reduction in viability RV [1, 9]: 67.1
- Reduction in vitality score RNm [1, 9]: 70.5
- Viability V [1, 10]: 14.1%
- Vitality score Nm (over 19 days) [1, 10]: 1.8
- Reduction in viability RV [1, 10]: 85.2
- Reduction in vitality score RNm [1, 10]: 87.5
- Viability V [1, 11]: 11.2%
- Vitality score Nm (over 19 days) [1, 11]: 1.6
- Reduction in viability RV [1, 11]: 88.8
- Reduction in vitality score RNm [1, 11]: 89.9
- Viability V [1, 12]: 0%
- Vitality score Nm (over 19 days) [1, 12]: 0
- Reduction in viability RV [1, 12]: 100
- Reduction in vitality score RNm [1, 12]: 100
- Viability V [1, 13]: 32.3%
- Vitality score Nm (over 19 days) [1, 13]: 3.3
- Reduction in viability RV [1, 13]: 67.7
- Reduction in vitality score RNm [1, 13]: 79.0
- Viability V [1, 14]: 89.7%
- Vitality score Nm (over 19 days) [1, 14]: 13.3
- Reduction in viability RV [1, 14]: −3.0
- Reduction in vitality score RNm [1, 14]: −3.6
- Viability V [1, 15]: 87.8%
- Vitality score Nm (over 19 days) [1, 15]: 12.8
- Reduction in viability RV [1, 15]: −0.8
- Reduction in vitality score RNm [1, 15]: 0.1
- Viability V [1, 16]: 85.4%
- Vitality score Nm (over 19 days) [1, 16]: 12.6
- Reduction in viability RV [1, 16]: 2.0
- Reduction in vitality score RNm [1, 16]: 2.2
- Viability V [1, 17]: 81.6%
- Vitality score Nm (over 19 days) [1, 17]: 12.0
- Reduction in viability RV [1, 17]: 6.3
- Reduction in vitality score RNm [1, 17]: 6.6
- Ovicidal activity ([2]; 1-10 % by mass): very high ovicidal activity
- Number of hatchings (cumulative) ([2]; concentration by mass 1 %, D5, control 141): 7
- Number of hatchings (cumulative) ([2]; concentration by mass 1 %, D10, control 179): 7
- Number of hatchings (cumulative) ([2]; concentration by mass 1 %, D13, control 184): 7
- Number of hatchings (cumulative) ([2]; concentration by mass 1 %, D17, control 184): 7
- Number of hatchings (cumulative) ([2]; concentration by mass 5 %, D5, control 141): 2
- Number of hatchings (cumulative) ([2]; concentration by mass 5 %, D10, control 179): 2
- Number of hatchings (cumulative) ([2]; concentration by mass 5 %, D13, control 184): 5
- Number of hatchings (cumulative) ([2]; concentration by mass 5 %, D17, control 184): 5
- Number of hatchings (cumulative) ([2]; concentration by mass 10 %, D5, control 141): 0
- Number of hatchings (cumulative) ([2]; concentration by mass 10 %, D10, control 179): 2
- Number of hatchings (cumulative) ([2]; concentration by mass 10 %, D13, control 184): 5
- Number of hatchings (cumulative) ([2]; concentration by mass 10 %, D17, control 184): 5
- Reduction in the number of hatchings ([2]; on the last day of observation): approximately 97%

— patent US8663669B2, “Pesticide treatment of soils or substrates with sulphur compounds” (Arkema France, priority 2002, dated 2014)
